From patent US7342137B1, “Cyclohexenone compounds from Antrodia camphorata and application thereof” (Golden Biotechnology Corporation, priority 2007, dated 2008) come the findings set out here.

Common to all, as to type: cell-based
The test system of assay [1] is human hepatic cancer cells, Hep 3B. The assay can be described thus: In vitro Lovastatin add-on study (MTT), Hep 3B. The conditions noted are these: Homo sapiens, Hep3B, 0.0043 μg/ml Lovastatin + formula 2. The protocol:
(§1) The experiment was also carried out according to NCI anti-cancer drug screen in vitro model. The human hepatic cancer cells, Hep 3B and Hep G2 and MDA-MB-231 were separately cultivated in media containing fetal calf serum for 24 hours. The proliferated cells were washed once with PBS, then treated with 1× trypsin-EDTA and centrifuged at 1200 rpm for 5 minutes. The supernatant was discarded and the cell pellet was resuspended in 10 ml of fresh culture medium by gently shaking. The Hep 3B cells were treated with 0.0043 μg/ml of Lovastatin for 72 hours and Hep G2 cells were treated with 0.0017 μg/ml of Taxol for 72 hours before placing in a 96-well plate. 4-hydroxy-2,3-dimethoxy-6-methyl-5(3,7,11-trimethyl-dodeca-2,6,10-trienyl)-cyclohex-2-enone obtained from example 1 were added respectively into each of the 96 wells at the following concentrations: 0 μg/ml (the control group); 30, 10, 3, 1, 0.3, 0.1 and 0.03 μg/ml (the experiment group). The cells were incubated at 37° C. in a 5% CO2 incubator for 48 hours. MTT was added in a concentration of 2.5 mg/ml into each well in dark and reacted for 4 hours, followed by the addition of 100 μl of lysis buffer to stop the reaction. The plates were read on an ELISA reader at wavelength of 570 nm to determine the survival rates.

Assay [2] deals with human prostate cancer cells, LNCaP. The assay can be described thus: In vitro Taxol add-on study (MTT), prostate cancer cells LNCaP. The following applies: Homo sapiens; LNCaP (0.0017 μg/ml Taxol + formula 2) as printed in Table 6. The method, then:
as §1, with “human prostate” for “human hepatic”, “cells, LNCaP” for “cells, Hep 3B”, “and DU-145” for “and Hep G2 and MDA-MB-231”, “The LNCaP cells were treated with 0.0017 μg/ml of Taxol for 72 hours and DU-145” for “The Hep 3B”, “0.0043” for “0.0043 μg/ml of Lovastatin for 72 hours and Hep G2 cells were treated with 0.0017”

Assay [3] has as its system human prostate cancer cells, DU-145. Briefly: In vitro Taxol add-on study (MTT), prostate cancer cells DU-145. The conditions noted are these: Homo sapiens; DU-145 (0.0043 μg/ml Taxol + formula 2) as printed in Table 6. The method, then:
as §1, with “human prostate” for “human hepatic”, “cells, LNCaP” for “cells, Hep 3B”, “and DU-145” for “and Hep G2 and MDA-MB-231”, “The LNCaP cells were treated with 0.0017 μg/ml of Taxol for 72 hours and DU-145” for “The Hep 3B”, “0.0043” for “0.0043 μg/ml of Lovastatin for 72 hours and Hep G2 cells were treated with 0.0017”

Regarding `COC1=C(OC)C(O)C(C/C=C(\C)CC/C=C(\C)CCC=C(C)C)C(C)C1=O` (stereo not drawn) [formula 2, 4-hydroxy-2,3-dimethoxy-6-methyl-5(3,7,11-trimethyl-dodeca-2,6,10-trienyl)-cyclohex-2-enone], the values for the IC50 in assay [1], in assay [2] and in assay [3] were 0.002 µg/mL, 0.961 µg/mL and 0.515 µg/mL, respectively.
